These results are taken from patent US8486947B2, “Treatment of Parkinson's disease, obstructive sleep apnea, dementia with Lewy bodies, vascular dementia with non-imidazole alkylamines histamine H3-receptor ligands” (Bioprojet, priority 2005, dated 2013).

One data set relates to histamine H3-receptor. Conditions: literature reports; cited from earlier work.
For data set [1], the system named is MPTP-treated cats (experimentally induced parkinsonism). The experiment in a line: Sleep-wakefulness patterns by electromyographic and EEG recordings in MPTP-treated parkinsonian cats. It is filed as in vivo, cat. The conditions noted are these: oral dose of 10 mg/kg. The procedure: As assessed by electromyographic and EEG recordings, treatment with BF 2.-649 (3-(4-Chlorophenyl)propyl 3-piperidinopropyl ether), a potent and selective H3-antagonist, at an oral dose of 10 mg/kg, normalized these sleep-wakefulness patterns.

The test system of data set [2] is patients with a diagnostic of OSA. The data set can be described thus: Single-blind trial against placebo in male patients with obstructive sleep apnea, 3-day treatment. It is filed as in vivo, human. Conditions: 40 mg oral once a day, 3 days. The procedure:
In a group of 10 male patients with a diagnostic of OSA, confirmed by polysomnography performed during a night in an hospital setting, an Epswoth score above 12 and a body mass index of less than 35, the effect of a 3-day treatment with BF 2.649 (3-(4-Chlorophenyl)propyl 3-piperidinopropyl ether) was assessed in a single-blind trial against placebo, at a fixed oral dose of 40 mg once a day.
In addition the nocturnal sleep duration was not decreased and its quality was improved. This clinical trial establishes for the first time the utility of H3 antagonists/inverse agonists in OSA.

Data set [3] deals with acetylcholine concentration in brain. The data set can be described thus: Rat brain microdialysis of acetylcholine, combination with acetylcholinesterase inhibitors. It is filed as in vivo. Conditions: rats, co-administered with donepezil, rivastigmine or gallanthamine. As to the method: (§1) Generally, dementia with Lewi bodies is treated with acetylcholinesterase inhibitors such as donepezil, rivastigmine or gallanthamine. These agents increase the acetylcholine concentration in the is brain extracellular space. Combinations of a compound of the invention and one of these agents were tested on rats. The drug was selected from donepezil, rivastigmine or gallanthamine and administered in combination with 3-(4-Chlorophenyl)propyl 3-piperidinopropyl ether in rats.

Another data set relates to rats. The data set can be described thus: Tolerability of the combinations with acetylcholinesterase inhibitors in rats. Type of data set: in vivo, rat. Conditions: combination with donepezil, rivastigmine or gallanthamine. As to the method:
as §1

The subject of data set [4] is rats suffering from Parkinson. The data set can be described thus: Combination with an anti-parkinson drug in rats. It is filed as in vivo, rat. The procedure: (§2) Combinations of a compound of the invention and a anti-parkinson drug were tested on rats and humans suffering from Parkinson.
The subject of data set [5] is humans suffering from Parkinson. The experiment in a line: Combination with an anti-parkinson drug in humans suffering from Parkinson. It is filed as in vivo, human. The conditions noted are these: 40 mg p.o. The procedure: as §2
Data set [6] relates to patients suffering from obstructive sleep apnea (OSA). The data set can be described thus: Two clinical studies (single-blinded or double-blinded against placebo, polysomnographical test) in OSA patients. Type of data set: in vivo, human. The conditions noted are these: 40 mg p.o. once a day during 3 and 7 days. The procedure: Two clinical studies were conducted on patients suffering from obstructive sleep apnea (OSA), in a single-blinded or double-blinded trial against placebo with a polysomnographical test on patients.
In both studies, patients were administered with 3-(4-Chlorophenyl)propyl 3-piperidinopropyl ether at 40 mg p.o. once a day during 3 and 7 days.
In both studies, daytime sleepiness was improved in accordance with the Epworth test or according to the frequency of naps or daytime sleepiness occurrences. The average daytime sleepiness could be reduced by up to 50%.

Data set [7] concerns Parkinsonian rat (unilateral 6-hydroxydopamine). The conditions noted are these: 6-hydroxydopamine rat, co-administered with levodopa; cited from earlier work.
The test system of a further data set is PD patients. Conditions: cited from earlier work.
Where [8] appears, read: combination with anti-parkinson drug.
Setting [9] is: combination with ropinirole, lisuride, bromocriptine, levodopa or pramiprexole.

In the case of `c1ccc(C2(N3CCCCC3)CCCCC2)cc1` [phencyclidine], in the data set with histamine H3-receptor, the H3-receptor antagonism potency entry is recorded as “very low potency”.
Take `CNCCc1ccccn1` [betahistine]: the H3-receptor antagonism potency result with histamine H3-receptor is “very low potency”.
Take `Clc1ccc(CCCOCCCN2CCCCC2)cc1` [BF 2.649, 3-(4-Chlorophenyl)propyl 3-piperidinopropyl ether]: in [1], the “long periods of sleep (model of excessive daytime sleepiness)” value is “largely suppressed”. Also, in data set [1] (EMG and EEG recordings), the sleep-wakefulness patterns result is listed as “normalized”. In addition, in data set [2], the nocturnal sleep duration entry is reported as “not decreased”, the nocturnal sleep quality result is “improved” and the “occurrence of diurnal sleep episodes” value was “total prevention”. The “decrease in the number of diurnal somnolence episodes” value in [2] (all subjects) is “more than 60%”. The “increase of the acetylcholine concentration in brain (microdialysis)” value in data set [3] is reported as “potentialised”. Besides, the “tolerability, in particular cardiovascular parameters” value with rats is recorded as “well tolerated”. The “dose of the anti-parkinson drug needed” value in [4] (setting [8]) was “allowed lower doses”. Also, in data set [4] (setting [9]), the motor symptoms result is given as “significantly improved”. Moreover, the “dose of the anti-parkinson drug needed” value in data set [5] (setting [8]) is given as “allowed lower doses”. Also, the motor symptoms entry in data set [5] (setting [9]) is recorded as “significantly improved”. Further, in data set [6], the “daytime sleepiness (Epworth test, frequency of naps or daytime sleepiness occurrences)” value was “improved” and the “reduction of average daytime sleepiness” value is on record as “up to 50%”.
Turning to `S=C(NC1CCCCC1)N1CCC(c2cnc[nH]2)CC1` [thioperamide], in data set [7], the “effect of levodopa on turning behaviour upon co-administration” value is given as “not modified”.
Consider `NC(=O)C[S+]([O-])C(c1ccccc1)c1ccccc1` (stereo not shown) [modafinil], for which the “treatment of excessive daytime sleepiness” value in the data set with PD patients is given as “limited success”.
Regarding `CN(C)CCCSC(=N)N` [dimaprit], the H3-receptor antagonism potency result in the data set with histamine H3-receptor is on record as “very low potency”.
